According to US6835378B2, “Method and compositions for inhibiting thrombin-induced coagulation” (The Texas A&M University System University, priority 2001, dated 2004):
Entries after “also recorded” stand apart in the source; their conditions may differ.

Columns and labels:
[1] = biological target: T1, binding of rSdrG(50-597) to Fg (Staphylococcus epidermidis, UniProt Q9KI13); test: ELISA: inhibition of rSdrG(50-597) binding to immobilized Fg by synthetic peptides; design: species or system S. epidermidis; conditions: for inhibition of rSdrG(50-597) binding to Fg: 50 nM rSdrG(50-597) pre-incubated with peptide 1 h
T1 construct: made in house; host or cells: E. coli Topp3
T1 sequence (Q9KI13 50-597): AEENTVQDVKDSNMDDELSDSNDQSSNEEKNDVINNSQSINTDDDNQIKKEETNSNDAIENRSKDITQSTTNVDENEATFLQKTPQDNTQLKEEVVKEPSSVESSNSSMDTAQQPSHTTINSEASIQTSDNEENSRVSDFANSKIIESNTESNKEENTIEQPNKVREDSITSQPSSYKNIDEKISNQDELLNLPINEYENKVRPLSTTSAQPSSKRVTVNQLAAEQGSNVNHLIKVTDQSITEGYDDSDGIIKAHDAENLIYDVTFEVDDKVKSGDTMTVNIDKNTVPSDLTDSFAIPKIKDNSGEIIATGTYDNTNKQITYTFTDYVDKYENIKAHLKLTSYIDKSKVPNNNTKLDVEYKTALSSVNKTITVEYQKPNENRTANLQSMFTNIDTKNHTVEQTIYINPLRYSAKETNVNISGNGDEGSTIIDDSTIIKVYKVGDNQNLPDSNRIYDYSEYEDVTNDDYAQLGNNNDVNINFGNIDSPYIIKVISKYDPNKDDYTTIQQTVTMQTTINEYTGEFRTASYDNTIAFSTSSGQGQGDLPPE
Procedure: ELISA—Microtiter plates (Immulon 4, Dynatech Laboratories Inc.) were coated with 1 μg of Fg (Enzyme Research Labs) in PBS, pH 7.5 for 18 h at 4° C. Plates were washed three times with PBS, 0.05% Tween 20 (PBST) and blocked with 1% (w/v) bovine serum albumin (BSA) for 1 h at room temperature. Plates were washed three times with PBST and rSdrG(50-597), diluted into PBS, was added to the wells and the plate was incubated for 1 h at room temperature. Plates were washed three times with PBST and bound rSdrG(50-597) was detected by adding a 1:2000 dilution of an anti-His-tag mAb (Clontech) in PBST, 0.1% BSA. Plates were incubated for 1 h at room temperature and then washed three times with PBST. A 1:2000 dilution of goat anti-mouse alkaline phosphatase (AP)-conjugated polyclonal antibodies (Bio-Rad) in PBST, 0.1% BSA were added to the wells and the plate was incubated for 1 h at room temperature. Plates were washed three times with PBST and developed with p-nitrophenyl phosphate (Sigma) in 1 M diethanolamine, 0.5 mM MgCl2, pH 9.0 at room temperature for ˜30 min. Plates were read at 405 nm using an ELISA plate reader (Thermomax microplate reader, Molecular Devices).
In the inhibition experiments, 50 nM rSdrG(50-597) in PBS was pre-incubated with the indicated amounts of selected peptides for 1 h at room temperature. The sample mixtures were added to the Fg-coated wells and bound rSdrG(50-597) was detected as described above.

[2] = biological target: rSdrG(50-597) (Staphylococcus epidermidis, UniProt Q9KI13); conditions: increasing amounts of unlabeled peptide
Procedure: Fluorescence Polarization—Fluorescence polarization was used to determine the equilibrium dissociation constant (KD) for the interaction of rSdrG(50-597) with peptide β1-25. The peptide was labeled with fluorescein as previously described (18). Increasing concentrations of rSdrG(50-597) in PBS, pH 7.5, were incubated with 10 nM labeled peptide for 3 h in the dark at room temperature. Reactions were allowed to reach equilibrium. Polarization measurements were taken with a Luminescence Spectrometer LS50B (Perkin Elmer) using FL WinLab software (Perkin Elmer). Binding data was analyzed by nonlinear regression used to fit a binding function as defined by the following equation: [formula]
Determination of Equilibrium Dissociation Constants (KD)—An equilibrium dissociation constant (KD) for the interaction of rSdrG(50-597) with the Fg Bβ chain peptide β1-25 was determined.

[3] = in vivo; cited from earlier work

Substance	inhibition of rSdrG(50-597) binding to Fg [1]	further results
ADSEGEGDFLAEGGGVR (listed as Staphylococcus epidermidis) [FpA]	essentially inactive	–
FSARGHRPLD [β11-20]	essentially inactive	–
FSERKDLHQGEGNPREFVENDAKGR [β1-25S]	did not interfere	inhibition of rSdrG(50-597) binding to fluorescein-labeled β1-25 [2]: not
NEEGFFSA RGHRPLD [β6-20]	Effective inhibition; also recorded: potent inhibitor	–
NEEGFFSARGHRPLDKKREE [β6-25]	inhibit the binding of rSdrG(50-597) to Fg in a concentration dependent manner	–
QGVNDNEEGFFSAR [FpB]	inhibited the binding of rSdrG(50-597) in a concentration dependent manner; also recorded: poor inhibitory activity	activity relative to peptide β1-25 (fold less active) ([1]; inhibition ELISA, FIG. 4C): at least 10 fold
QGVNDNEEGFFSARGHRPLDKK REE [β1-25]	inhibit the binding of rSdrG(50-597) to Fg in a concentration dependent manner	inhibition of rSdrG(50-597) binding to fluorescein-labeled β1-25 [2]: inhibited binding
heparin	–	major bleeding, patients [3]: 1-33%; thrombocytopenia, patients [3]: 1-5%
